According to patent US12532884B2, “Fungicidal compositions” (SYNGENTA CROP PROTECTION AG, priority 2020, dated 2026):

Key:
Septoria glycines = assay: Example C3: mixtures against Septoria glycines (brown spot), liquid culture; assay type: cell-based; conditions: single component; for inhibition at 0.1 ppm / inhibition at 0.3 ppm: read-out: Activity (%)
Text: This occurs whenever the action of an active ingredient combination is greater than the sum of the actions of the individual components. The action to be expected E for a given active ingredient combination obeys the so-called COLBY formula and can be calculated as follows (COLBY, S. R. “Calculating synergistic and antagonistic responses of herbicide combination”. Weeds, Vol. 15, pages 20-22; 1967): • ppm=milligrams of active ingredient (=a.i.) per liter of spray mixture • X=% action by active ingredient A) using p ppm of active ingredient • Y=% action by active ingredient B) using q ppm of active ingredient.
(§1) According to COLBY, the expected (additive) action of active ingredients A)+B) using p+q ppm of active ingredient is:
(§2) If the action actually observed (O) is greater than the expected action (E), then the action of the combination is super-additive, i.e. there is a synergistic effect. In mathematical terms, synergism corresponds to a positive value for the difference of (O-E). In the case of purely complementary addition of activities (expected activity), said difference (O-E) is zero. A negative value of said difference (O-E) signals a loss of activity compared to the expected activity.
Mycelia fragments or conidia suspensions of a fungus prepared either freshly from liquid cultures of the fungus or from cryogenic storage, are directly mixed into nutrient broth. DMSO solutions of the test compound (max. 10 mg/mL) are diluted with 0.025% Tween20 by a factor of 50 and 10 μl of this solution is pipetted into a microtiter plate (96-well format). […] The test plates are incubated in the dark at 24° C. and 96% relative humidity. The inhibition of fungal growth is determined photometrically after 2 to 7 days, depending on the pathosystem, and percent antifungal activity relative to the untreated check is calculated.
Conidia of the fungus harvested from a fresh culture grown on artificial media, were directly mixed into nutrient broth (PDB potato dextrose broth). A DMSO solution of the test compounds was placed into a microtiter plate (96-well format) and the nutrient broth containing the fungal spores was added to it.
Fungicidal activity was evaluated on a 100-0 scale (100=no disease growth; 0=well completely covered by mycelium).

[1] = system: Glomerella lagenarium syn. Colletotrichum lagenarium; assay: Example C4: mixtures against Glomerella lagenarium syn. Colletotrichum lagenarium (anthracnose), liquid culture; assay type: cell-based; conditions: single component; for inhibition at 0.3 ppm / inhibition at 0.1 ppm: Colletotrichum orbiculare
Text: (§3) Certain mixture compositions comprising a compound of formula (I) described above may show a synergistic effect. This occurs whenever the action of an active ingredient combination is greater than the sum of the actions of the individual components. The action to be expected E for a given active ingredient combination obeys the so-called COLBY formula and can be calculated as follows (COLBY, S. R. “Calculating synergistic and antagonistic responses of herbicide combination”. Weeds, Vol. 15, pages 20-22; 1967): • ppm=milligrams of active ingredient (=a.i.) per liter of spray mixture • X=% action by active ingredient A) using p ppm of active ingredient • Y=% action by active ingredient B) using q ppm of active ingredient.
as §1, §2
(§4) Mycelia fragments or conidia suspensions of a fungus prepared either freshly from liquid cultures of the fungus or from cryogenic storage, are directly mixed into nutrient broth. DMSO solutions of the test compound (max. 10 mg/mL) are diluted with 0.025% Tween20 by a factor of 50 and 10 μl of this solution is pipetted into a microtiter plate (96-well format). The nutrient broth containing the fungal spores/mycelia fragments is then added to give an end concentration of the tested compound. The test plates are incubated in the dark at 24° C. and 96% relative humidity. The inhibition of fungal growth is determined photometrically after 2 to 7 days, depending on the pathosystem, and percent antifungal activity relative to the untreated check is calculated.
(§5) Conidia of the fungus from cryogenic storage were directly mixed into nutrient broth (PDB potato dextrose broth). A DMSO solution of the test compounds was placed into a microtiter plate (96-well format) and the nutrient broth containing the fungal spores was added to it.
The following mixture compositions at the reported concentration (in ppm) in tables C4-3 and C4-4 gave the following disease control in this test (Glomerella lagenarium syn. Colletotrichum lagenarium). Fungicidal activity was evaluated on a 100-0 scale (100=no disease growth; 0=well completely covered by mycelium).

Septoria tritici = assay: Example C2: mixtures against Septoria tritici (leaf blotch), liquid culture; assay type: cell-based; conditions: single component; for inhibition at 0.3 ppm: read-out: Activity (%)
Text: as §3, §1, §2, §4, §5
The following mixture compositions at the reported concentration (in ppm) in tables C2-3 to C2-5 gave the following disease control in this test Septoria tritici (leaf blotch). Fungicidal activity was evaluated on a 100-0 scale (100=no disease growth; 0=well completely covered by mycelium).

Corynespora cassiicola = assay: Example C5: mixtures against Corynespora cassiicola (target leaf spot), liquid culture; assay type: cell-based; conditions: single component
Text: as §3, §1, §2, §4
as §5, with “it. The test plates were incubated at 24 C and the inhibition of growth was determined photometrically after 3-4 days at 620 nm.” for “it.”
(§6) The following mixture compositions at the reported concentration (in ppm) in tables C4-3 and C4-4 gave the following disease control in this test (Corynespora cassiicola). Fungicidal activity was evaluated on a 100-0 scale (100=no disease growth; 0=well completely covered by mycelium).

[2] = system: Mycosphaerella arachidis syn. Cercospora arachidicola; assay: Example C1: mixtures against Mycosphaerella arachidis syn. Cercospora arachidicola (brown leaf spot), liquid culture; assay type: cell-based; conditions: single component, 100-0 scale (100=no disease growth)
Text: as §3, §1, §2, §4, §5
as §6, with “C1-3” for “C4-3”, “C1-4” for “C4-4”, “Mycosphaerella arachidis syn. Cercospora arachidicola (Brown leaf spot of peanut).” for “(Corynespora cassiicola).”

[3] = system: Puccinia recondita (Brown rust); assay: Example B: comparative biological activity against Puccinia recondita (brown rust), curative, wheat leaf segments; assay type: in vivo; conditions: 8 dpi
Procedure: Method; Wheat leaf segments are placed on agar in multiwell plates (24-well format). The leaf segments are inoculated with a spore suspension of the fungus and sprayed with test solutions 1 day after inoculation. After appropriate incubation the activity of a compound is assessed 8 dpi (days after inoculation) as curative fungicidal activity.
The data are presented as the percentage of disease control of each compound for the biological tests and testing rates described below in table B1.

Phakopsora pachyrhizi = assay: Example D: preventative activity against Phakopsora pachyrhizi on soybean (whole plants sprayed, leaf disks inoculated); assay type: in vivo; conditions: applied alone; for inhibition at 450 g/ha / inhibition at 900 g/ha: Phakopsora pachyrhizi, foliar, read-out: Observed Activity (% of untreated)
Text: as §3, §1, §2
Whole soybean plants are treated with the recited active ingredients 4 weeks after planting. 1 day after spraying leaf disks are cut from the first trifoliate leaf. Five repetitions at each rate are conducted. The leaf disks are inoculated with Phakopsora pachyrhizi (Asian soybean rust) one day after treatment. Evaluation of the leaf disks is conducted 11 to 14 days after inoculation and the activity is derived from the relation of the treated vs untreated, infested check. (100=no disease, no damage to the leaf, 0=high infestation, leaf damaged heavily). The rates of the active ingredients used are given in the tables as g active ingredient (a.i.)/ha.

[4] = 0.1 ppm, 100-0 scale (100=no disease growth)
[5] = Septoria glycines, 0.1 ppm, 100-0 scale (100=no disease growth)
[6] = Septoria glycines, 0.3 ppm, 100-0 scale (100=no disease growth)
[7] = Zymoseptoria tritici, 0.3 ppm, 100-0 scale
[8] = 0.3 ppm, 100-0 scale (100=no disease growth)

Cn1cc(C(=O)Nc2cccc3c2[C@@H]2CC[C@H]3C2=C(Cl)Cl)c(C(F)F)n1 (racemic) [benzovindiflupyr]
Activity (%) (Septoria glycines; 0.1 ppm): 70% | Activity (%) (Septoria glycines; [4]): 70% | Activity (%) ([1]; 0.1 ppm): 50% | Activity (%) (Septoria tritici; [4]): 50% | Activity (%) (Septoria tritici; 0.3 ppm, 100-0 scale): 70%

CC(O)(Cn1cncn1)c1ccc(Oc2ccc(Br)cc2)nc1C(F)(F)F (stereo not drawn) [2-[6-(4-bromophenoxy)-2-(trifluoromethyl)-3-pyridyl]-1-(1,2,4-triazol-1-yl)propan-2-ol]
inhibition at 0.3 ppm ([1]; 0.3 ppm): 0%

COc1ccnc(C(=O)N[C@@H](C)C(=O)O[C@@H](C)C(c2ccc(F)cc2)c2ccc(F)cc2)c1OC(C)=O [Florylpicoxamid, reference compound]
Activity (%) (Septoria glycines; 0.01 ppm): 0% | Activity (%) (Septoria glycines; 0.02 ppm): 0% | Activity (%) ([1]; 0.1 ppm): 20% | Activity (%) (Septoria tritici; 0.01 ppm, 100-0 scale): 70% | Activity (%) (Septoria tritici; 0.02 ppm, 100-0 scale): 90% | Activity (%) (Corynespora cassiicola; 0.02 ppm): 0% | Activity (%) ([2]; 0.01 ppm): 50% | Activity (%) ([2]; 0.02 ppm): 90%

O=C(Nc1ccccc1F)c1ccc(-c2noc(C(F)(F)F)n2)cc1 [N-(2-fluorophenyl)-4-[5-(trifluoromethyl)-1,2,4-oxadiazol-3-yl]benzamide]
inhibition at 10 ppm (Septoria tritici; Zymoseptoria tritici, 10 ppm, 100-0 scale): 0% | inhibition at 20 ppm (Septoria tritici; Zymoseptoria tritici, 20 ppm, 100-0 scale): 0% | inhibition at 10 ppm (Corynespora cassiicola; Corynespora cassiicola, 10 ppm): 0% | inhibition at 20 ppm (Corynespora cassiicola; Corynespora cassiicola, 20 ppm): 0%

CO/C=C(\Oc1cc(C#CC2CCCCC2)ccc1C)C(=O)OC [Reference Compound Z-1, reference compound]
control (%) ([3]; 20 ppm): 0% | control (%) ([3]; 60 ppm): 0% | control (%) ([3]; 200 ppm): 0%

CO/C=C(\Oc1cccc(C(C)(C)C)c1)C(=O)OC [Reference Compound Z-2, reference compound]
control (%) ([3]; 20 ppm): 0% | control (%) ([3]; 60 ppm): 0% | control (%) ([3]; 200 ppm): 0%

CCC(=O)Oc1c(OC)ccnc1C(=O)N[C@@H](C)C(=O)O[C@@H](C)[C@@H](C)c1ccccc1C [[(1S,2S)-1-methyl-2-(o-tolyl)propyl] (2S)-2-[(4-methoxy-3-propanoyloxy-pyridine-2-carbonyl)amino]propanoate, reference compound]
inhibition at 0.03 ppm (Septoria glycines; Septoria glycines, 0.03 ppm): 0% | inhibition at 0.06 ppm (Septoria glycines; Septoria glycines, 0.06 ppm): 0% | inhibition at 0.03 ppm (Septoria tritici; Zymoseptoria tritici, 0.03 ppm, 100-0 scale): 50% | inhibition at 0.06 ppm (Septoria tritici; Zymoseptoria tritici, 0.06 ppm, 100-0 scale): 70% | inhibition at 0.03 ppm (Corynespora cassiicola; Corynespora cassiicola, 0.03 ppm): 0% | inhibition at 0.06 ppm (Corynespora cassiicola; Corynespora cassiicola, 0.06 ppm): 0% | inhibition at 0.03 ppm ([2]; Mycosphaerella arachidis, 0.03 ppm): 70%

Cc1ccc(C(=O)OCc2ccc(Oc3ccccc3)cc2)c(N)n1 [aminopyrifen]
Activity (%) ([1]; 0.1 ppm): 20% | Activity (%) ([1]; 0.3 ppm): 50%

N#Cc1c(Cl)c(Cl)c(Cl)c(C#N)c1Cl [chlorothalonil, reference compound]
inhibition at 0.1 ppm (Septoria glycines; [5]): 0% | inhibition at 0.3 ppm (Septoria glycines; [6]): 20% | inhibition at 0.1 ppm (Septoria tritici; Zymoseptoria tritici, 0.1 ppm, 100-0 scale (100=no disease growth)): 20% | inhibition at 0.3 ppm (Septoria tritici; [7]): 50% | inhibition at 0.1 ppm ([2]; Mycosphaerella arachidis, 0.1 ppm): 20% | inhibition at 450 g/ha (Phakopsora pachyrhizi; 450 g/ha): 8% | inhibition at 900 g/ha (Phakopsora pachyrhizi): 7%

COc1ccnc(C(=O)N[C@H]2COC(=O)[C@H](Cc3ccccc3)[C@@H](OC(=O)C(C)C)[C@H](C)OC2=O)c1OCOC(=O)C(C)C [fenpicoxamid]
Activity (%) ([1]; 0.1 ppm): 20% | Activity (%) ([1]; 0.3 ppm): 70%

O=C1c2ccccc2C(=O)N1SC(Cl)(Cl)Cl [folpet, reference compound]
inhibition at 0.1 ppm (Septoria glycines; [5]): 0% | inhibition at 0.3 ppm (Septoria glycines; [6]): 0% | inhibition at 0.1 ppm ([1]; 0.1 ppm): 20% | inhibition at 0.3 ppm ([1]; 0.3 ppm): 70% | inhibition at 0.3 ppm (Septoria tritici; [7]): 20% | inhibition at 0.3 ppm ([2]; Mycosphaerella arachidis, 0.3 ppm): 20% | inhibition at 450 g/ha (Phakopsora pachyrhizi; 450 g/ha): 4% | inhibition at 900 g/ha (Phakopsora pachyrhizi): 13%

Cc1nc2c(F)c(F)ccc2cc1Oc1cccc(F)c1C(C)(C)O [ipflufenoquin, reference compound]
Activity (%) (Septoria glycines; 0.1 ppm): 0% | Activity (%) (Septoria glycines; [4]): 0% | Activity (%) (Septoria glycines; 0.3 ppm): 20% | Activity (%) (Septoria glycines; [8]): 20% | Activity (%) ([1]; 0.1 ppm): 50% | Activity (%) (Septoria tritici; [4]): 20% | Activity (%) (Septoria tritici; 0.3 ppm, 100-0 scale): 20% | Activity (%) ([2]; 0.3 ppm): 0%

CC(O)(Cn1cncn1)c1ccc(Oc2ccc(Cl)cc2)cc1C(F)(F)F (stereo not drawn) [mefentrifluconazole]
Activity (%) ([1]; 0.3 ppm): 0%

OC(Cc1ccccc1Cl)(Cn1nc[nH]c1=S)C1(Cl)CC1 (stereo not drawn) [prothioconazole]
inhibition at 0.1 ppm ([1]; 0.1 ppm): 20% | inhibition at 0.3 ppm ([1]; 0.3 ppm): 70%

mancozeb [reference compound]
Activity (%) (Septoria glycines; [4]): 0% | Activity (%) (Septoria glycines; [8]): 0% | Activity (%) ([1]; 0.1 ppm): 0% | Activity (%) ([1]; 0.3 ppm): 20% | Activity (%) ([2]; 0.1 ppm): 0% | Activity (%) ([2]; 0.3 ppm): 0% | Observed Activity (% of untreated) (Phakopsora pachyrhizi; 225 g/ha): 27% | Observed Activity (% of untreated) (Phakopsora pachyrhizi; 450 g/ha): 39%
